Measurements reported in patent US8338565B2, “Macrocyclic compounds for inhibition of tumor necrosis factor alpha” (Ensemble Therapeutics Corporation, priority 2008, dated 2012).
Read-outs that look alike come from different tables or passages of the source. Numbered stars: 1 amine (or outer) side, 2 acyl side, 3 side chain; on linkers, the order of the positions; unused ones are H or OH. Bridge positions count the residues as written; N and C are the ends. Square brackets hold non-standard residues; d marks the D form. Peptide text beside a SMILES is read from it. Phe(4-(4-pyridyl)) = N[C@@H](Cc1ccc(-c2ccncc2)cc1)C(=O)O; Phe(4-NH2) = Nc1ccc(C[C@H](N)C(=O)O)cc1; d(hPhe) = N[C@H](CCc1ccccc1)C(=O)O; Suc = O=C(CCC(=O)[*:2])[*:1]

Tests used:
[1] = target: T1, TNFα / TNFα receptor (TNFα R1/Fc) (Homo sapiens, UniProt P01375); assay: Inhibition of binding of TNFα to the TNFα receptor (plate ELISA competition); details: Table 2
T1 construct: purchased R&D Systems
Procedure, shortened: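 Compound dilutions were preincubated 30 min at RT with 8.33 nM TNFα R1/Fc in PBST with 2% DMSO, then added to wells coated with 15 nM TNFα for 30 min. Bound receptor was detected with HRP anti-human Fc and TMB, read as A450.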

[2] = tested on: rat paw edema model; assay: Rat paw edema model (carrageenan), anti-inflammatory activity; assay type: in vivo, Sprague-Dawley (SD) rats
Method: Compounds 3, 4, 10 and 202 were tested in a rat paw edema model to determine anti-inflammatory activity. Seven groups (one for Vehicle A [15 mL PEG400, 3 mL Graves Grain alcohol (190 proof), 1.8 mL dimethylacetamide and 10.2 mL deionized water] alone as a negative control, one for Vehicle B [0.1M NaHCO3] alone as a negative control, one for each of the four test compounds dissolved in Vehicle A, and one for indomethacin dissolved in Vehicle B as a positive control), each group containing six Sprague-Dawley (SD) rats (180-200 g) randomized by weight. Initial paw volumes were measured by placing the right hind limb of the rat up to the top of the hock in a beaker of water sitting on a scale that had been tared to zero and recording the readout.
Rats were pre-treated with either i) one of the test compounds, or ii) a positive or negative control. Vehicle A alone and test compound dissolved in Vehicle A (Compound 3-1.0 mg/kg; Compound 4-0.4 mg/kg; Compound 10-0.5 mg/kg; Compound 202-0.3 mg/kg) were administered by intravenous injection. Vehicle B alone and indomethacin (5 mg/kg in 0.1M NaHCO3) was administered by intraperitoneal injection. Thirty minutes after this pretreatment, rats were anesthetized and injected with 0.1 mL of carrageenan (10 mg/mL in water) in the subplantar region of the right hind foot using a ½ inch 26 gauge needle attached to a 1 cc syringe.
At 2, 4 and 6 hours post-carrageenan injection, the right hind foot of each rat was measured for paw volume as described above.
We next investigated the effect of varying intravenous doses of Compound 202 (0.05, 0.10, 0.30, and 1.00 mg/kg) in the same model using the same protocol (6 rats per group). […] We also investigated the affect of oral dosing (10 mg/kg) of Compound 202 in the same model. For oral dosing, a 2.5 mg/mL suspension of Compound 202 was prepared in Vehicle A. Rats were orally administered 4 mL/kg of that suspension.

[3] = tested on: TNF-α (degradation of IkB in HeLa cells or A431 cells); assay: Human cell-based assay: inhibition of TNF-α induced degradation of IkB; details: for inhibition at 5 µM: read-out: Inhibition at Various Compound Concentrations, 5 μM; for inhibition at 10 µM: read-out: Inhibition at Various Compound Concentrations, 10 μM
[4] = tested on: rat paw edema model; assay: Rat paw edema model (carrageenan), anti-inflammatory activity; assay type: in vivo, Sprague-Dawley (SD) rats; details: Table 8; 3 mg/kg PO; 4 h post-carrageenan
[5] = read-out: Activity (IC50, inhibition of TNFα binding to TNFα R1/Fc)
[6] = Table 5, 1 mg/kg IV, 2 h post-carrageenan
[7] = Table 5, 1 mg/kg IV, 4 h post-carrageenan
[8] = Table 5, 1 mg/kg IV, 6 h post-carrageenan
[9] = Activity (IC50, inhibition of TNFα binding to TNFα R1/Fc)
[10] = Table 8, 1 mg/kg IV, 2 h post-carrageenan
[11] = Table 8, 1 mg/kg IV, 4 h post-carrageenan
[12] = Table 8, 1 mg/kg IV, 6 h post-carrageenan
[13] = 5 μM compound, HeLa or A431 cells
[14] = 10 μM compound, HeLa or A431 cells

T1 sequence (P01375 77-233 limits assumed, species assumed): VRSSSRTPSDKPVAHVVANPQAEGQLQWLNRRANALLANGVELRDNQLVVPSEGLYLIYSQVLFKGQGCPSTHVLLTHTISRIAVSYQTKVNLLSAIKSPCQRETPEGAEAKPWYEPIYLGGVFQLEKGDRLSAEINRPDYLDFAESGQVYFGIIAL

SMILES: O=C1COc2ccc(cc2)C[C@@H](C(=O)O)NC(=O)[C@H](Cc2ccccc2)NC(=O)[C@H](Cc2ccc(-c3ccc(NC(=O)OCc4ccccc4)cc3)cc2)NC(=O)[C@H](Cc2cccs2)N1 [Compound 362]
- IC50 [1, 5]: < 10 µM
- Change in Paw Volume [2, 6]: 1.17 ± 0.07 mL
- Change in Paw Volume [2, 7]: 1.22 ± 0.21 mL
- Change in Paw Volume [2, 8]: 1.15 ± 0.19 mL
- inhibition at 5 µM [3]: < 10%
- inhibition at 10 µM [3]: 10 to 50%

SMILES: O=C1COc2ccc(cc2)C[C@@H](C(=O)N[C@@H](CCc2ccccc2)C(=O)O)NC(=O)[C@H](Cc2ccccc2)NC(=O)[C@@H](Cc2ccc(-c3ccccc3)cc2)NC(=O)[C@H](Cc2cccs2)N1 [Compound 393]
- IC50 [1, 9]: < 10 µM
- Change in Paw Volume ([2]; Table 4, 1 mg/kg IV, 2 h post-carrageenan): 1.24 ± 0.18 mL
- Change in Paw Volume ([2]; Table 4, 1 mg/kg IV, 4 h post-carrageenan): 1.54 ± 0.25 mL
- Change in Paw Volume ([2]; Table 4, 1 mg/kg IV, 6 h post-carrageenan): 1.56 ± 0.17 mL
- Change in Paw Volume ([2]; Table 6, 1 mg/kg IV, 2 h post-carrageenan): 1.27 ± 0.07 mL
- Change in Paw Volume ([2]; Table 6, 1 mg/kg IV, 4 h post-carrageenan): 1.28 ± 0.08 mL
- Change in Paw Volume ([2]; Table 6, 1 mg/kg IV, 6 h post-carrageenan): 1.42 ± 0.12 mL
- inhibition at 5 µM [3]: 10 to 50%
- inhibition at 10 µM [3]: > 80%

SMILES: O=C1CCC(=O)N[C@H](CCc2ccccc2)C(=O)N[C@@H](Cc2ccc(-c3ccncc3)cc2)C(=O)N[C@H](Cc2ccccc2)C(=O)N[C@H](C(=O)O)Cc2ccc(cc2)N1 [Compound 419] ([d(hPhe)][Phe(4-(4-pyridyl))][dF][Phe(4-NH2)]-OH; linker N-4 via Suc)
- IC50 [1, 5]: 10 to 30 µM
- Change in Paw Volume [2, 10]: 1.22 ± 0.21 mL
- Change in Paw Volume [2, 11]: 1.32 ± 0.18 mL
- Change in Paw Volume [2, 12]: 1.16 ± 0.16 mL
- inhibition at 5 µM [3, 13]: < 10%
- inhibition at 10 µM [3, 14]: < 10%

SMILES: O=C1CCC(=O)N[C@H](CCc2ccccc2)C(=O)N[C@@H](Cc2ccc(-c3ccncc3)cc2)C(=O)N[C@H](Cc2ccccc2)C(=O)N[C@H](C(=O)N[C@@H](Cc2ccccc2)C(=O)O)Cc2ccc(cc2)N1 [Compound 426] ([d(hPhe)][Phe(4-(4-pyridyl))][dF][Phe(4-NH2)]F-OH; linker N-4 via Suc)
- IC50 [1, 5]: < 10 µM
- Change in Paw Volume [2, 6]: 0.90 ± 0.15 mL
- Change in Paw Volume [2, 7]: 1.11 ± 0.18 mL
- Change in Paw Volume [2, 8]: 1.11 ± 0.23 mL
- inhibition at 5 µM [3, 13]: 10 to 50%
- inhibition at 10 µM [3, 14]: 10 to 50%

SMILES: O=C1COc2ccc(cc2)C[C@@H](C(=O)O)NC(=O)[C@H](Cc2ccc(O)cc2)NC(=O)[C@H](Cc2ccc(-c3ccccc3)cc2)NC(=O)[C@H](Cc2cccs2)N1 [Compound 428]
- IC50 [1, 5]: < 10 µM
- Change in Paw Volume [2, 10]: 1.27 ± 0.15 mL
- Change in Paw Volume [2, 11]: 1.43 ± 0.22 mL
- Change in Paw Volume [2, 12]: 1.39 ± 0.22 mL
- inhibition at 5 µM [3]: < 10%
- inhibition at 10 µM [3]: < 10%

SMILES: O=C(O)[C@H](Cc1ccccc1)NC(=O)[C@@H]1Cc2ccc(cc2)NC(=O)[C@H](O)[C@@H](O)C(=O)N[C@H](Cc2cccs2)C(=O)N[C@@H](Cc2ccc(-c3ccncc3)cc2)C(=O)N[C@H](Cc2ccccc2)C(=O)N1 [Compound 442]
- IC50 [1, 5]: < 10 µM
- Change in Paw Volume [2, 6]: 0.86 ± 0.15 mL
- Change in Paw Volume [2, 7]: 1.08 ± 0.16 mL
- Change in Paw Volume [2, 8]: 1.01 ± 0.14 mL
- inhibition at 5 µM [3, 13]: 10 to 50%
- inhibition at 10 µM [3, 14]: 10 to 50%

SMILES: O=C1COc2ccc(cc2)C[C@@H](C(=O)NCS(=O)(=O)O)NC(=O)[C@H](CCc2ccccc2)NC(=O)[C@@H](Cc2ccc(-c3ccccc3)cc2)NC(=O)[C@H](Cc2cccs2)N1 [Compound 482]
- IC50 [1, 9]: < 10 µM
- Change in Paw Volume [2, 6]: 0.73 ± 0.19 mL
- Change in Paw Volume [2, 7]: 0.99 ± 0.34 mL
- Change in Paw Volume [2, 8]: 0.86 ± 0.27 mL
- Change in Paw Volume ([2]; Table 8, 3 mg/kg PO, 2 h post-carrageenan): 1.13 ± 0.15 mL
- Change in Paw Volume ([2]; Table 8, 3 mg/kg PO, 6 h post-carrageenan): 1.14 ± 0.10 mL
- inhibition at 5 µM [3]: 10 to 50%
- inhibition at 10 µM [3]: 10 to 50%
- Change in Paw Volume [4]: 1.18 ± 0.10 mL
